Here are results for three molecules from article PMC12481569, “Novltex: A New Class of Antibiotics with Potent Activity against Multidrug-Resistant Bacterial Pathogens–Design, Synthesis, and Biological Evaluation” (Journal of Medicinal Chemistry, 2025).

Assay [1] has as its system MRSA ATCC 33591. In words: Time-kill kinetics. Type of assay: cell-based, Staphylococcus aureus. To be noted: 5 μg/mL, MHB with 0.002% polysorbate 80, 37 °C, two independent experiments in duplicate. On the procedure:
Early-stage time-kill kinetics for analogue 12 against MRSA ATCC 33591 were performed using vancomycin as a control, following the protocol described in Section VIII, Supporting Information.
3 Time-kill kinetics of Novltex analogue 12 and clinical antibiotic (vancomycin) against MRSA 33591. […] Results are the mean ± SD of two independent experiments performed in duplicate.
(§1) MICs were performed as previously reported 4. For MIC testing all peptides were dissolved in DMSO.
(§2) Bacterial cultures were grown overnight on Mueller-Hinton Agar (MHA) plates and adjusted to a final inoculum of 10^5 – 10^6 CFU/mL. 100 µl of ino culum in Meuller -Hinton broth (MHB) was mixed with equal volume of peptides (dissolved in MHB) at 2x their concentration in a 96 well plate . For daptomycin MIC determination, the same protocol was followed with the addition of 50 mg/L calcium chloride to the medium. MIC values were determined in the media contain ing polysorbate 80 (0.002%, v/v) to prevent non -specific adsorption of the peptides to plastic surfaces. The final peptides concentrations ranged from 0.0625 – 32 µg/mL. The 96 well plates were then incubated at 37 °C for 24 h. All the experiments were performed in two independent duplicates and the MIC was determined as the lowest concentration in which no visible growth was observed.
(§3) Antibiotics MIC break points ( µg/mL)
Table. […]

In assay [2] the test system is MRSA ATCC 33591. In words: microbe, parasite or virus in culture. Type of assay: cell-based, Staphylococcus aureus. On the procedure:
as §1
as §2, with “observed. […]” for “observed.”

Assay [3] has as its system Multidrug-Resistant (MDR) S. aureus. In words: microbe, parasite or virus in culture. The note with it: 24 h; for MIC: Staphylococcus aureus. On the procedure:
(§4) We further evaluated analogue 12 against multidrug-resistant (MDR) strains of S. aureus (acquired from the NARSA collection) and MDR E. faecium (acquired from International Health Management Associates, IHMA, Europe Sarl), comparing its activity to various classes of clinically used antibiotics (Table ).
as §1, §2, §3
(§5) Table. S4: Susceptibility cut-off values (MIC breakpoints) for various clinical antibiotics. […]

The test system of assay [4] is Multidrug-Resistant (MDR) E. faecium. In words: microbe, parasite or virus in culture. The note with it: 24 h; for MIC: Enterococcus faecium. Here is the method:
as §4, §1, §2, §3, §5

Assay [5] can be described thus: Lipid II binding, spot-on-lawn assays on S. aureus ATCC 33591. Also on record: species or system Staphylococcus aureus. To be noted: lipid II (300 μM, 2 μL) at the edge of the antibiotic halo, overnight 37 °C, duplicates. The source says:
6 Spot-on-lawn assays to evaluate binding of Lipid II with analogue 12 on S. aureus ATCC 33591. (A) Analogue 12 was premixed with increasing ratios of lipid II (0.5 to 4 equiv) and spotted onto a seeded lawn of S. aureus 33591. Lipid II and analogue 12 were also spotted independently. The position of the analogue 12–lipid II mixture is marked in red. (B) Daptomycin was used as a negative control. Asterisks denote the positions of analogue 12 (black), lipid II (blue), and daptomycin (green) additions.
Analogue 12 was premixed with increasing ratios of lipid II (0.5 to 4 equiv) for 10 min prior to spotting onto agar plates seeded with a lawn of S. aureus ATCC 33591 and incubated overnight.
XII. Lipid II binding determination of analogue 12
Previously reported methods were used to determine the lipid II binding of analogue 126,7. The lipid II used in this study was prepared by chemical synthesis and its preparation and purification has been […]
A: An overnight culture of S. aureus ATCC 33591 was added to LB agar (45 °C) at a final concentration of 0.1% (vol/vol) and pour-plated into 90 mm petri dishes. Binding of 12 to purified lipid II was assessed using a spot-on-lawn assay. Premixed solutions (5 µL) containing analogue 12 (8 µg) with varying concentration of lipid II were spotted onto the agar, alongside individual controls of 12 and lipid II.
After drying, plates were incubated overnight at 37 °C. This assay was performed in duplicates.
B: To assess the interaction between analogue 12 and lipid II, a culture of S. aureus ATCC 33591 was grown overnight in LB broth and inoculated into LB agar at a final concentration of 1% (v/v) at 45°C.
This mixture was evenly distributed into 90mm petri dishes. Antibiotic inhibition haloes were previously determined by spotting analogue 12 and daptomycin (5 μL,8 µg/mL) onto agar plates and measuring the diameter of the halo after overnight incubation at 37 °C . The binding affinity of analogue 12 and lipid II was later examined by applying purified lipid II (300 μM, 2 μL) to the edge of the antibiotic halo. Analogue 12 and Daptomycin were applied to the inoculated agar plate at a spaced distance, once the antimicrobial solution drops had dried, lipid II was spotted on the edge of the inhibition halo. The plates were then incubated overnight at 37 °C. […]

Values after ≈ are worked out from the molar mass of the structure shown. Where two headings read alike, the source gives them in different places. Positions of bridges follow the written chain, without caps; N, C: chain ends. Non-standard residues stand in square brackets, D forms with d. Residues, ends and D or L forms follow the SMILES beside them. d(aIle) = CC[C@H](C)[C@@H](N)C(=O)O Where only a bound is given, the exact number is not on record here.

For the molecule `CN[C@H](CC(C)C)C(=O)N[C@H]1C(=O)N[C@@H](CC(N)=O)C(=O)N[C@H]2C(=O)N[C@H]3C(=O)N[C@H](C(=O)N[C@H](C(=O)O)c4cc(O)cc(O)c4-c4cc3ccc4O)[C@H](O)c3ccc(c(Cl)c3)Oc3cc2cc(c3O[C@@H]2O[C@H](CO)[C@@H](O)[C@H](O)[C@H]2O[C@H]2C[C@](C)(N)[C@H](O)[C@H](C)O2)Oc2ccc(cc2Cl)[C@H]1O` [Vancomycin], the “time to similar bacterial killing” value in assay [1] was 24 h. Also, the MIC in assay [2] (Staphylococcus aureus, 24 h, read-out: MIC against MRSA ATCC 33591) is 0.5 to 1 µg/mL (≈ 0.345 to 0.69 µM); in assay [3] (read-out: MIC, Staphylococcus aureus NR 45914), 1 µg/mL (≈ 0.69 µM); in assay [3] (read-out: MIC, Staphylococcus aureus NR 45926), 0.5 µg/mL (≈ 0.345 µM); in assay [3] (read-out: MIC, Staphylococcus aureus NR 45930) it was 1 µg/mL (≈ 0.69 µM); in assay [3] (read-out: MIC, Staphylococcus aureus NR 46062), 2 µg/mL (≈ 1.38 µM); in assay [4] (read-out: MIC, Enterococcus faecium 1563254), over 32 µg/mL. Moreover, the MIC in assay [4] (read-out: MIC, Enterococcus faecium 1581582) was over 32 µg/mL; in assay [4] (read-out: MIC, Enterococcus faecium 1766686), over 32 µg/mL.
On to `CCCCCCCCCC(=O)N[C@@H](Cc1c[nH]c2ccccc12)C(=O)N[C@H](CC(N)=O)C(=O)N[C@@H](CC(=O)O)C(=O)N[C@@H]1C(=O)NCC(=O)N[C@@H](CCCN)C(=O)N[C@@H](CC(=O)O)C(=O)N[C@H](C)C(=O)N[C@@H](CC(=O)O)C(=O)NCC(=O)N[C@H](CO)C(=O)N[C@@H]([C@H](C)CC(=O)O)C(=O)N[C@@H](CC(=O)c2ccccc2N)C(=O)O[C@@H]1C` [Daptomycin], for which, in assay [5], the “halo distortion on addition of lipid II” value is on record as “maintained a distinct circular inhibition zone”. For the same molecule, the “MIC, Staphylococcus aureus NR 45914” value in assay [3] (MDR strain NR 45914, MHB, 0.002% polysorbate 80, 37 °C, daptomycin with 50 mg/L calcium chloride) amounted to 2 µg/mL (≈ 1.23 µM). Moreover, in assay [3] (MDR strain NR 45926, MHB, 0.002% polysorbate 80, 37 °C, daptomycin with 50 mg/L calcium chloride), the “MIC, Staphylococcus aureus NR 45926” value was 4 µg/mL (≈ 2.47 µM). For the same molecule, the “MIC, Staphylococcus aureus NR 45930” value in assay [3] (MDR strain NR 45930, MHB, 0.002% polysorbate 80, 37 °C, daptomycin with 50 mg/L calcium chloride) was 2 µg/mL (≈ 1.23 µM). The “MIC, Staphylococcus aureus NR 46062” value in assay [3] (MDR strain NR 46062, MHB, 0.002% polysorbate 80, 37 °C, daptomycin with 50 mg/L calcium chloride) amounted to 2 µg/mL (≈ 1.23 µM). The “MIC, Enterococcus faecium 1563254” value in assay [4] (MDR clinical isolate 1563254, MHB, 0.002% polysorbate 80, 37 °C, daptomycin with 50 mg/L calcium chloride) was over 32 µg/mL. Also, in assay [4] (MDR clinical isolate 1581582, MHB, 0.002% polysorbate 80, 37 °C, daptomycin with 50 mg/L calcium chloride), the “MIC, Enterococcus faecium 1581582” value was over 32 µg/mL. Further, the “MIC, Enterococcus faecium 1766686” value in assay [4] (MDR clinical isolate 1766686, MHB, 0.002% polysorbate 80, 37 °C, daptomycin with 50 mg/L calcium chloride) was over 32 µg/mL.
As for `CC[C@H](C)[C@@H](NC(=O)[C@@H](N)Cc1ccccc1)C(=O)N[C@H](CCCCN)C(=O)N[C@@H](CO)C(=O)N[C@H]1C(=O)N[C@@H](C)C(=O)N[C@@H](CC(C)C)C(=O)N[C@@H](CC(C)C)C(=O)O[C@H]1C` [analogue 16, Leu2 D-allo-Ile–Novltex] (H-F[d(aIle)][dK]S[dT]ALL; ester 5-C), in assay [2] (MRSA ATCC 33591), the “fold decrease in antibacterial activity (MIC) compared to analogue 12” value was 64 fold. In assay [2] (Table 2, MHB with 0.002% polysorbate 80, 37 °C, 24 h, two independent duplicates), the “MIC against MRSA ATCC 33591” value is 16 µg/mL (≈ 18.3 µM).
